Data from ChEMBL document CHEMBL1140784, “Leishmanicidal and trypanocidal activities of 2-aminocyclohexanol and 1,2-cyclohexanediamine derivatives” (Bioorg Med Chem Lett, 2008).

Columns and labels:
Leishmania braziliensis = assay: Antileishmanial activity against Leishmania braziliensis MHOM/BR/75/M2903 promastigotes after 72 hrs; type: functional, organism-based; settings: MHOM/BR/75/M2903, 72 h
Trypanosoma cruzi = assay: Antitrypanosomal activity against Trypanosoma cruzi Tulahuen epimastigotes after 72 hrs; type: functional, organism-based
Leishmania amazonensis = assay: Antileishmanial activity against Leishmania amazonensis IFLA/BR/67 promastigotes at pH 8.0 after 72 hrs; type: functional, organism-based
Leishmania donovani = assay: Antileishmanial activity against Leishmania donovani MHOM/BR/74/PP75 promastigotes after 72 hrs; settings: MHOM/BR/74/PP75, 72 h

Structure (SMILES) | IC50 (Leishmania braziliensis) [µM] | IC50 (Trypanosoma cruzi) [µM] | IC50 (Leishmania amazonensis) [µM] | IC50 (Leishmania donovani) [µM]
CCCCCCCCCCCCC/C=C1/CCC[C@@H]2[C@H]1N2Cc1ccccc1 (stereo partly specified) | 16.2 | 31 | 16.2 | 19.9
CCCCCCCCCCCCC/C=C1/CCC[C@@H]2[C@H]1N2CCCCCC (stereo partly specified) | 2.4 | 51 | 2.4 | 1.8
C[C@@H]1[C@H](O)[C@@H](C)/C=C/C=C/C=C/C=C/C=C/C=C/C=C/[C@H](O[C@@H]2O[C@H](C)[C@@H](O)[C@H](N)[C@@H]2O)C[C@@H]2O[C@](O)(C[C@@H](O)C[C@@H](O)[C@H](O)CC[C@@H](O)C[C@@H](O)CC(=O)O[C@H]1C)C[C@H](O)[C@H]2C(=O)O (stereo in doubt) [AMPHOTERICIN B] | 0.2 | – | 0.2 | –
O=C(Cn1ccnc1[N+](=O)[O-])NCc1ccccc1 [BENZNIDAZOLE] | – | 74 | – | –
N=C(N)c1ccc(OCCCCCOc2ccc(C(=N)N)cc2)cc1 [PENTAMIDINE] | 29.4 | – | 29.4 | 29.4

The remaining lines, values ahead:

IC50 (Leishmania braziliensis) [µM] | IC50 (Trypanosoma cruzi) [µM] | IC50 (Leishmania amazonensis) [µM] | IC50 (Leishmania donovani) [µM] | Structure (SMILES)
7.3 | 1.2 | 7.3 | 9.6 | CCCCCCCCCCCCC/C=C1/CCC[C@@H](NCCCC)[C@@H]1OC(C)=O
10.8 | 98 | 15.5 | 13 | CCCCCCCCCCCCC/C=C1/CCC[C@@H](NCc2ccccc2)[C@@H]1NCCCCCC
13.3 | 8.8 | 11.6 | 13.3 | CCCCCCCCCCCCC/C=C1/CCC[C@H](O)[C@H]1OC(C)=O
8.8 | 8.6 | 9.1 | 8.6 | CCCCCCCCCCCCC/C=C1/CCC[C@H](NCCCC)[C@H]1OC(C)=O
148 | 106 | 157 | 157 | CCCCCCCCCCCCC/C=C1/CCC[C@H](OCc2ccccc2)[C@H]1N(CC)CC
14 | 116 | 14 | 17.4 | CCCCCCCCCCCCC/C=C1/CCC[C@@H](NCCCC)[C@@H]1NCCCCCC
1.1 | 0.14 | 1.1 | 1.1 | CCCCCCCCCCCCC/C=C1/CCC[C@H](O)[C@H]1NCCN (relative stereo)
0.29 | 0.19 | 0.26 | 0.29 | CCCCCCCCCCCCCC[C@@H]1CCC[C@H](O)[C@H]1N (relative stereo)
